This note sets out measurements from patent US20090239846A1, “Novel Compounds” (Glaxo Group Limited, priority 2005, published 2009).

Some results are limits rather than exact numbers.

The term melting point denotes the temperature, or range, at which the solid turns liquid.

Data set [1] deals with IL-8 production by human neutrophils. The data set can be described thus: TNF-stimulated IL-8 production from human neutrophils. The data set is classed as cell-based. The conditions noted are these: Neutrophil, bound, not more than 50% inhibition at 100 nM, read-out: IC50.
Method: TNF-Stimulated IL-8 Production from Human Neutrophils The effect of test compounds on TNF-stimulated IL8 production by human neutrophils is measured as follows. Neutrophils are prepared from blood obtained from consenting donors, using standard methods. Blood is collected in heparinized syringes and layered over histopaque (30 ml/20 ml). Following centrifugation, the red cell pellet is resuspended in PBS and purified over a dextran gradient. Red blood cells are lysed with water for 40 sec, remaining granulocytes collected by centrifugation and resuspended at 1.5×10̂6 cells/ml. Cells are added (0.5-1 ml) to 48 well plates already containing compound at 1000×final concentration in neat DMSO or 10% DMSO in RPMI1640 with 10% FBS. TNF (final concentration 100 ng/ml) is used as the stimulus. Cells incubated for approximately 20 hrs at 37° C., 5% CO2. Levels of IL-8 in the cell free supernatant are determined by sandwich ELISA, and inhibition relative to a control with DMPO but no compound is calculated.
The next data set deals with T1, Recombinant human p38α (Homo sapiens, UniProt Q16539).
T1 construct: GST; made in house
T1 sequence (Q16539 whole entry): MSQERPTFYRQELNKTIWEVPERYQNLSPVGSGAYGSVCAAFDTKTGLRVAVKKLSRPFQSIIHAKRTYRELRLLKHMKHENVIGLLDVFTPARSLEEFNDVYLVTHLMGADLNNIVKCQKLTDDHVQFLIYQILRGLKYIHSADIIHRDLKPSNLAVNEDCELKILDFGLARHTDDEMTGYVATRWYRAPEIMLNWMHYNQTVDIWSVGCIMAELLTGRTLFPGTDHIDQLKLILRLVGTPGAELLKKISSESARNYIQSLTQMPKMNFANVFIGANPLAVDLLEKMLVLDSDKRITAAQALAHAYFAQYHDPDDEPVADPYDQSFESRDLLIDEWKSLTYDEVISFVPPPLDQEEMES
In words: Fluorescence anisotropy kinase binding assay (standard or low volume). Particulars: for IC50: bound, read-out: apparent pIC50 (converted); for active in the assay (pIC50, p38α binding): 12 nM p38α, 5 nM fluorescent ligand. The method, boiled down:
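Activated GST-tagged recombinant human p38α (pre-activated with MBP-MKK6 DD) at 12 nM final with 5 nM rhodamine green-labelled pyridinylimidazole tracer in pH 7.5 HEPES/CHAPS/DTT/MgCl2 buffer. Test compound 0.28 nM–16.6 μM or 0.02 nM–25 μM final, 3% or 1.7% DMSO; 30–60 min at room temperature. Fluorescence anisotropy read (ex 485/em 535 nm) for Ki.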
(In general: Polarisation of emitted light reports the rotation of a fluorescent probe.)

The test system of data set [2] is influx of neutrophils to the lung in LPS-challenged rats. The data set can be described thus: Rat LPS neutrophilia model. In kind it is in vivo. The conditions noted are these: LPS aerosol, lavage 4 hours later, in at least one of the range of conditions tested, significance p<0.05. The method, boiled down: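 Rats pretreated 15 min–24 h with compound or vehicle, given intratracheally (200 ul, isoflurane anaesthesia) as suspension in various vehicles, then exposed to LPS aerosol (100 ug/ml) 15 min. BAL 4 h later; Diffquick-stained differential counts give % inhibition of neutrophils versus no-compound controls at a set concentration and pretreatment time.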

As to `CCN(CC)C(=O)c1ccc(C)c(-c2nc(NC3CCN(C)CC3)nc3c2CNC(=O)N3c2c(F)cccc2F)c1` [Example 159, 3-{8-(2,6-difluorophenyl)-2-[(1-methyl-4-piperidinyl)amino]-7-oxo-5,6,7,8-tetrahydropyrimido[4,5-dl-pyrimidin-4-yl}-N,N-diethyl-4-methylbenzamide], the melting point lay within 165 to 169 °C. The IC50 in data set [1] is over 100 nM.

The molecule `Cc1ccc(C(=O)N(C)C)cc1-c1nc(NCCNC(C)C)nc2c1CNC(=O)N2c1c(F)cccc1F` [Example 153, 3-[8-(2,6-difluorophenyl)-2-({2-[(1-methylethyl)amino]ethyl}amino)-7-oxo-5,6,7,8-tetrahydropyrimido[4,5-d]pyrimidin-4-yl]-N,N,4-trimethylbenzamide] came in with a melting point of 130 to 133 °C. Further, at Recombinant human p38α, the IC50 is over 15800 nM. Moreover, the IC50 in data set [1] is over 100 nM.

Take `CNC(=O)c1ccc(C)c(-c2nc(N3CCC(N4CCCC4)CC3)nc3c2CNC(=O)N3c2c(F)cccc2F)c1` [Example 175, 3-{8-(2,6-difluorophenyl)-7-oxo-2-[4-(1-pyrrolidinyl)-1-piperidinyl]-5,6,7,8-tetrahydropyrimido[4,5-d]pyrimidin-4-yl}-N,4-dimethylbenzamide]: the melting point was 189 to 194 °C (dec.). Besides, the inhibition of neutrophilia entry in data set [2] is “inactive”.

The molecule `Cc1ccc(C(=O)Nc2ccc(C)c(-c3nc(N(C)C)nc4c3CNC(=O)N4c3c(F)cccc3F)c2)cc1F` [Example 28, N-{3-[8-(2,6-difluorophenyl)-2-(dimethylamino)-7-oxo-5,6,7,8-tetrahydropyrimido[4,5-d]pyrimidin-4-yl]-4-methylphenyl}-3-fluoro-4-methylbenzamide] displayed a melting point of 257.8 to 264.3 °C. Further, the “active in the assay (pIC50, p38α binding)” value (“active in the assay” below) on Recombinant human p38α was “active”. Besides, the inhibition of neutrophilia entry in data set [2] is recorded as “statistically nonsignificant inhibition of neutrophilia”.

With `CCN(CC)C(=O)c1ccc(C)c(-c2nc(NCCN(C)C)nc3c2CNC(=O)N3c2c(F)cccc2F)c1` [156(c), 3-(8-(2,6-difluorophenyl)-2-{[2-(dimethylamino)ethyl]amino}-7-oxo-5,6,7,8-tetrahydropyrimido[4,5-d]pyrimidin-4-yl)-N,N-diethyl-4-methylbenzamide], the melting point lay within 125 to 127 °C. Moreover, on Recombinant human p38α, the “active in the assay” value is “active”. Also, in data set [1], the IC50 is over 100 nM.

For `Cc1ccc(C(=O)Nc2ccc(C)c(-c3nc(OC(C)C)nc4c3CNC(=O)N4c3c(F)cccc3F)c2)cc1F` [Example 26, N-(3-{8-(2,6-difluorophenyl)-2-[(1-methylethyl)oxy]-7-oxo-5,6,7,8-tetrahydropyrimido[4,5-d]pyrimidin-4-yl}-4-methylphenyl)-3-fluoro-4-methylbenzamide], the melting point lay in the range of 253.5 to 255.4 °C. For the same molecule, in data set [2], the inhibition of neutrophilia result was “inactive”.

As for `Cc1ccc(C(=O)N(C)C)cc1-c1nc(N2CCN(C)CC2)nc2c1CNC(=O)N2c1c(F)cccc1F` [149(c), 3-[8-(2,6-difluorophenyl)-2-(4-methyl-1-piperazinyl)-7-oxo-5,6,7,8-tetrahydropyrimido[4,5-d]pyrimidin-4-yl]-N,N,4-trimethylbenzamide], the melting point was 159 to 162 °C. Moreover, the “active in the assay” value on Recombinant human p38α was “active”. Besides, the IC50 in data set [1] was over 100 nM.

The molecule `CCN(CC)C(=O)c1ccc(C)c(-c2nc(NCCNC(C)C)nc3c2CNC(=O)N3c2c(F)cccc2F)c1` [Example 160, 3-[8-(2,6-difluorophenyl)-2-({2-[(1-methylethyl)amino]ethyl}amino)-7-oxo-5,6,7,8-tetrahydropyrimido[4,5-d]pyrimidin-4-yl]-N,N-diethyl-4-methylbenzamide] displayed a melting point of 89 to 91 °C. In addition, at Recombinant human p38α, the IC50 was over 15800 nM. Also, the IC50 in data set [1] was over 100 nM.

With `CNC(=O)c1ccc(C)c(-c2nc(NCCCN(C)C)nc3c2CNC(=O)N3c2c(F)cccc2F)c1` [Example 166, 3-(8-(2,6-difluorophenyl)-2-{[3-(dimethylamino)propyl]amino}-7-oxo-5,6,7,8-tetrahydropyrimido[4,5-d]pyrimidin-4-yl)-N,4-dimethylbenzamide], the melting point is 164 to 167 °C (dec.). Moreover, the inhibition of neutrophilia result in data set [2] was “statistically nonsignificant inhibition of neutrophilia”.

Molecule `CNC(=O)c1ccc(C)c(-c2nc(N(C)CCCN(C)C)nc3c2CNC(=O)N3c2c(F)cccc2F)c1` [Example 174, 3-{8-(2,6-difluorophenyl)-2-[[3-(dimethylamino)propyl](methyl)amino]-7-oxo-5,6,7,8-tetrahydropyrimido[4,5-d]pyrimidin-4-yl}-dimethylbenzamide] yielded a melting point of 163 to 165 °C. In data set [2], the inhibition of neutrophilia entry was “inactive”.

For `Cc1ccc(C(=O)N(C)C)cc1-c1nc(NC2CCN(C)CC2)nc2c1CNC(=O)N2c1c(F)cccc1F` [Example 155, 3-{8-(2,6-difluorophenyl)-2-[(1-methyl-4-piperidinyl)amino]-7-oxo-5,6,7,8-tetrahydropyrimido[4,5-d]-pyrimidin-4-yl}N,N,4-trimethylbenzamide], the melting point lay in the range of 163 to 165 °C. For the same molecule, at Recombinant human p38α, the “active in the assay” value is reported as “active”. Besides, the IC50 in data set [1] was over 100 nM.

As to `CNC(=O)c1ccc(C)c(-c2nc(N3CCC(N4CCCCC4)CC3)nc3c2CNC(=O)N3c2c(F)cccc2F)c1` [Example 176, 3-[2-(1,4′-bipiperidin-1′-yl)-8-(2,6-difluorophenyl)-7-oxo-5,6,7,8-tetrahydropyrimido[4,5-d]pyrimidin-4-yl]-N,4-dimethylbenzamide], the melting point was 179 to 184 °C (dec.). Also, in data set [2], the inhibition of neutrophilia entry was “statistically nonsignificant inhibition of neutrophilia”.

`Cc1ccc(C(=O)N(C)C)cc1-c1nc(NCCN(C)C)nc2c1CNC(=O)N2c1c(F)cccc1F` [Example 152]: the melting point fell in the range of 138 to 142 °C. Also, the IC50 in data set [1] was over 100 nM.

Turning to `Cc1ccc(C(=O)Nc2ccc(C)c(-c3nc(NC4CC(C)(C)NC(C)(C)C4)nc4c3CNC(=O)N4c3c(F)cccc3F)c2)cc1F` [23(e), N-(3-{8-(2,6-difluorophenyl)-7-oxo-2-[(2,2,6,6-tetramethyl-4-piperidinyl)amino]-5,6,7,8-tetrahydropyrimido[4,5-d]pyrimidin-4-yl}-4-methylphenyl)-3-fluoro-4-methylbenzamide], the melting point was 220 °C (dec.). Further, the “active in the assay” value on Recombinant human p38α is reported as “active”. In addition, the inhibition of neutrophilia entry in data set [2] was “statistically nonsignificant inhibition of neutrophilia”.

As to `Cc1ccc(C(=O)NCc2ccccc2)cc1-c1nc(N2CCN(C)CC2)nc2c1CNC(=O)N2c1c(F)cccc1F` [Example 148], the melting point is 164 to 168 °C. The inhibition of neutrophilia result in data set [2] was “statistically nonsignificant inhibition of neutrophilia”.

As for `Cc1ccc(NC(=O)c2ccsc2)cc1-c1nc(N2CCC(N)CC2)nc2c1CNC(=O)N2c1c(F)cccc1F` [Example 11, N-{3-[2-(4-amino-1-piperidinyl)-8-(2,6-difluorophenyl)-7-oxo-5,6,7,8-tetrahydropyrimido[4,5-d]pyrimidin-4-yl]-4-methylphenyl}-3-thiophenecarboxamide], the melting point is 250 to 261 °C (dec.). For the same molecule, the inhibition of neutrophilia entry in data set [2] is “statistically significant inhibition of neutrophilia”.

`CCN(CC)CCCNc1nc(-c2cc(C(=O)NC)ccc2C)c2c(n1)N(c1c(F)cccc1F)C(=O)NC2` [Example 172, 3-[2-{[3-(diethylamino)propyl]amino}-8-(2,6-difluorophenyl)-7-oxo-5,6,7,8-tetrahydropyrimido[4,5-d]pyrimidin-4-yl]-N,4-dimethylbenzamide] had a melting point of 133 to 136 °C. The inhibition of neutrophilia result in data set [2] is on record as “statistically nonsignificant inhibition of neutrophilia”.

`Cc1ccc(C(=O)NCc2ccccc2)cc1-c1nc(N(C)CCCN(C)C)nc2c1CNC(=O)N2c1c(F)cccc1F` [Example 17, 3-{8-(2,6-Difluorophenyl)-2-[[3-(dimethylamino)propyl](methyl)amino]-7-oxo-5,6,7,8-tetrahydropyrimido[4,5-d]pyrimidin-4-yl}-4-methyl-N-(phenylmethyl)benzamide] yielded a melting point of 124 to 127 °C. Moreover, the inhibition of neutrophilia entry in data set [2] is on record as “statistically nonsignificant inhibition of neutrophilia”.

`Cc1ccc(C(=O)NCc2ccccc2)cc1-c1nc(NCCCN(C)C)nc2c1CNC(=O)N2c1c(F)cccc1F` [Example 151] yielded a melting point of 141 to 144 °C. For the same molecule, in data set [2], the inhibition of neutrophilia entry was “statistically nonsignificant inhibition of neutrophilia”.

As to `Cc1ccc(C(=O)N(C)C)cc1-c1nc(N(C)CCCN(C)C)nc2c1CNC(=O)N2c1c(F)cccc1F` [Example 154, 3-{8-(2,6-difluorophenyl)-2-[[3-(dimethylamino)propyl](methyl)amino]-7-oxo-5,6,7,8-tetrahydropyrimido[4,5-d]pyrimidin-4-yl}-N,N,4-trimethylbenzamide], the melting point fell in the range of 114 to 118 °C. Also, the “active in the assay” value on Recombinant human p38α was “active”. Besides, the IC50 in data set [1] is over 100 nM.
